Molecules are shown by their SMILES.

This assay has as its system Z-138 cells. Kind of assay: Z-138 Methylation Assay (In Cell Western for symmetric di-methyl arginine and DNA content). It is filed as cell-based. Particulars: Homo sapiens, Table D-2, read-out: ICW EC50. A digest of the protocol: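 Symmetric di-methyl arginine signal (800 nm) ratioed to DNA content (700 nm) by In Cell Western after four days of compound treatment of Z-138 suspension cells seeded at 50,000 cells/mL. Percent inhibition set between DMSO and 3 μM reference wells; IC50 curves from triplicates.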
By EC50 is commonly meant the concentration that produces a half-maximal response. As for `N#Cc1ccccc1-c1cccc(OCC(O)CN2CCc3ccccc3C2)c1` (stereo not drawn) [Compound D93], the EC50 fell in the range of 1 to 10 µM.

Take `Oc1cccc(-c2cccc(OCC(O)CN3CCc4ccccc4C3)c2)c1` (stereo not drawn) [Compound D95]: the EC50 lay in the range of 1 to 10 µM.

In the case of `N#Cc1ccc(-c2cccc(OCC(O)CN3CCc4ccccc4C3)c2)cc1` (stereo not drawn) [Compound D94], the EC50 is 1 to 10 µM.
